Structures are written as SMILES.

Test [1] concerns the target T1, Acetylcholinesterase (Homo sapiens, UniProt P22303). The test can be described thus: Inhibition of human recombinant AChE.
The target in a further test is Cholinesterase (Homo sapiens, UniProt P06276). Briefly: Inhibition of human recombinant BChE.
The target in test [2] is T1, Acetylcholinesterase. Briefly: Inhibition of human AChE-mediated beta amyloid 1-40 aggregation at 100 uM.

Cholinesterase, sequence (P06276 whole entry): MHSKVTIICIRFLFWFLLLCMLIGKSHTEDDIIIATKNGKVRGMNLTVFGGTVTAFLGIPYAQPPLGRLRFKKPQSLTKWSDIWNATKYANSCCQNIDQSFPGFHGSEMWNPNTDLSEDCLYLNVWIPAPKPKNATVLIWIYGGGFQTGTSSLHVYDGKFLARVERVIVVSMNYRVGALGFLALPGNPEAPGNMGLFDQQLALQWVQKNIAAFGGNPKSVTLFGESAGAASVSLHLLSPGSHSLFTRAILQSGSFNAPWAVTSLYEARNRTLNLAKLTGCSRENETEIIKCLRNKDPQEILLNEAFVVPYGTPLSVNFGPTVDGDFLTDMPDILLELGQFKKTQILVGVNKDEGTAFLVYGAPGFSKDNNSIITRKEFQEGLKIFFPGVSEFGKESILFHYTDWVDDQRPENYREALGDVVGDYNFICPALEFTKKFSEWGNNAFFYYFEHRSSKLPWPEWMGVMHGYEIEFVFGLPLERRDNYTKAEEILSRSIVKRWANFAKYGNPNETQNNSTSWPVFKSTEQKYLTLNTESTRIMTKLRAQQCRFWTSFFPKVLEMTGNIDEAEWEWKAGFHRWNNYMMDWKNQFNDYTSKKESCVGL
T1 sequence (P22303 whole entry): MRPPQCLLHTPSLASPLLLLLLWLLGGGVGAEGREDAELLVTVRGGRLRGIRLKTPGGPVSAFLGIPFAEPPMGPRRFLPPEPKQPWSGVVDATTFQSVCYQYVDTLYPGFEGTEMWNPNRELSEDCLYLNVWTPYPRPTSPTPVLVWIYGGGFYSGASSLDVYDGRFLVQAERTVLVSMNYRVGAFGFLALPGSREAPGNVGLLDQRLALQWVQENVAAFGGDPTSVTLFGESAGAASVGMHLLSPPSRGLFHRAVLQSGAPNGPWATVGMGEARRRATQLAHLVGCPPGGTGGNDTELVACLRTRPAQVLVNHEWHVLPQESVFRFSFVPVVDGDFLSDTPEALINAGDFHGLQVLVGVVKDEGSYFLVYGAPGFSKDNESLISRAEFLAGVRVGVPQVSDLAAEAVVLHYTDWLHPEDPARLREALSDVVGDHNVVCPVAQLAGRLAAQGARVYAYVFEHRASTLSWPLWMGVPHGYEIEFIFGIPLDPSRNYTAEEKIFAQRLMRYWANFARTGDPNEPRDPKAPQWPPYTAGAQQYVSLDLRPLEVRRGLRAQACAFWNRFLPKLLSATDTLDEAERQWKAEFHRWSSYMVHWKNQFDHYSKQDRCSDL

On to `COc1cc2cc(-c3ccc(CN(C)Cc4cccc([N+](=O)[O-])c4)cc3)c(=O)oc2cc1OC`, for which the IC50 at Acetylcholinesterase [1] is 0.368 µM.
Regarding `COc1cc2cc(-c3ccc(C[N+](C)(C)Cc4ccccc4)cc3)c(=O)oc2cc1OC`, the values for the IC50 on Cholinesterase and at Acetylcholinesterase [1] were 43.8 µM and 0.0105 µM, respectively.
For `CN(Cc1ccccc1)Cc1ccc(-c2cc3cc([N+](=O)[O-])ccc3oc2=O)cc1`, the inhibition on Acetylcholinesterase [2] is less than 5%. Further, the IC50 on Acetylcholinesterase [1] was 0.148 µM.
Take `COc1ccc2c(=O)cc(-c3ccc(CN(C)Cc4ccccc4)cc3)oc2c1`: the half-inhibitory concentration (IC50) on Acetylcholinesterase [1] was determined as 80.5 µM.
For the compound `COc1cc2cc(-c3ccc(CN(C)Cc4ccccc4)cc3)c(=O)oc2cc1OC`, the inhibition against Acetylcholinesterase [2] was 35%.
Consider `COc1ccc(CN(C)Cc2ccc(-c3cc4cc(OC)c(OC)cc4oc3=O)cc2)cc1`, for which, on Acetylcholinesterase [1], the IC50 was found to be 2.26 µM.
On to `COc1cc2cc(-c3ccc(CN(C)Cc4ccc(C)cc4)cc3)c(=O)oc2cc1OC`, for which, on Acetylcholinesterase [1], the IC50 stood at 0.31 µM.
The same measure, in the same setting: the result for `CCN(Cc1ccccc1)Cc1cccc(-c2coc3cc(OC)c(OC)cc3c2=O)c1` reads 1.59 µM; that for `COc1cc2oc(-c3cccc(CN(C)Cc4ccccc4)c3)cc(=O)c2cc1OC`, 2.27 µM; that for `COc1cccc(CN(C)Cc2ccc(-c3cc4cc(OC)c(OC)cc4oc3=O)cc2)c1`, 0.714 µM.
Turning to `COc1ccc2oc(-c3ccc(CN(C)Cc4ccccc4)cc3)cc(=O)c2c1`, the IC50 is 88.9 µM on Cholinesterase and 18.1 µM at Acetylcholinesterase [1].
As to `COc1ccc2cc(-c3ccc(CN(C)Cc4ccccc4)cc3)c(=O)oc2c1`, the inhibition on Acetylcholinesterase [2] was less than 5%. Further, the IC50 at Cholinesterase turned out to be 570 µM; on Acetylcholinesterase [1] it was 0.892 µM.
As for `COc1cc2cc(-c3ccc(CN(C)Cc4cccc(C)c4)cc3)c(=O)oc2cc1OC`, at Acetylcholinesterase [1], the IC50 stood at 0.122 µM.
Still for that read-out and setting: the result for `COc1cc2occ(-c3cccc(CN(C)Cc4ccccc4)c3)c(=O)c2cc1OC` reads 2.02 µM.
Same read-out and setting: the result for `COc1ccc2cc(-c3cccc(CN(C)Cc4ccccc4)c3)c(=O)oc2c1` reads 2.29 µM.
`COc1ccccc1CN(C)Cc1ccc(-c2cc3cc(OC)c(OC)cc3oc2=O)cc1`: on Acetylcholinesterase [2], the inhibition came to 15%. The IC50 was found to be 52.9 µM at Cholinesterase and 0.0621 µM on Acetylcholinesterase [1].
Consider `COc1cc2cc(-c3ccc(CN(C)Cc4ccccc4C)cc3)c(=O)oc2cc1OC`, for which the IC50 at Acetylcholinesterase [1] was 0.366 µM.
`COc1cc2oc3cc(CN(C)Cc4ccccc4)ccc3c(=O)c2cc1OC`: the IC50 on Acetylcholinesterase [1] was found to be 30.3 µM.
`COc1ccc2oc(=O)c(-c3ccc(CN(C)Cc4ccccc4)cc3)cc2c1` had an inhibition at Acetylcholinesterase [2] of less than 5%. Besides, the IC50 is 1300 µM at Cholinesterase and 0.163 µM at Acetylcholinesterase [1].
For the compound `COc1cc2cc(-c3ccc(CN(CCO)Cc4ccccc4)cc3)c(=O)oc2cc1OC`, the inhibition against Acetylcholinesterase [2] turned out to be 6%. Besides, the IC50 at Cholinesterase came out at 35.1 µM; at Acetylcholinesterase [1], 0.0493 µM.
In the case of `COc1ccc2oc(=O)c(-c3cccc(CN(C)Cc4ccccc4)c3)cc2c1`, the values for the IC50 on Cholinesterase and at Acetylcholinesterase [1] were 136 µM and 0.303 µM, respectively.
Regarding `COc1cc2cc(-c3cccc(CN(C)Cc4ccccc4)c3)c(=O)oc2cc1OC`, the inhibition against Acetylcholinesterase [2] was 25%. Also, the IC50 was 279 µM on Cholinesterase and 0.202 µM on Acetylcholinesterase [1].
For the compound `COc1cc2occ(-c3ccc(CN(C)Cc4ccccc4)cc3)c(=O)c2cc1OC`, on Acetylcholinesterase [1], the IC50 is 1.23 µM.
In the case of `CN(Cc1ccccc1)Cc1ccc(-c2cc3cc(N)ccc3oc2=O)cc1`, the inhibition against Acetylcholinesterase [2] was less than 5%. In addition, the IC50 at Acetylcholinesterase [1] was found to be 0.281 µM.
In the same order, the values of `CCN(Cc1ccccc1)Cc1ccc(-c2cc3cc(OC)c(OC)cc3oc2=O)cc1` are 38% and 0.0183 µM.
For the compound `COc1cc2cc(-c3ccc(CN(C)Cc4ccccc4[N+](=O)[O-])cc3)c(=O)oc2cc1OC`, on Acetylcholinesterase [1], the IC50 was 0.987 µM.

Broadly, the IC50 is the point on the concentration scale where inhibition reaches its midpoint. By inhibition is commonly meant the drop in the measured response relative to a control, in per cent. High values mean a response far below the control, low ones a response near the control.

These data come from ChEMBL document CHEMBL1148720, “Extensive SAR and computational studies of 3-{4-[(benzylmethylamino)methyl]phenyl}-6,7-dimethoxy-2H-2-chromenone (AP2238) derivatives” (J Med Chem, 2007).
